Assay results reported in patent US9475805B2, “Tricyclic compound” (Kyowa Hakko Kirin Co., Ltd., priority 2008, dated 2016).

Target: T1, PPAR γ (Homo sapiens, UniProt P37231)
T1 construct: expressed in transfected cells; host or cells: HEK293EBNA
T1 sequence (P37231 174-475 isoform P37231-2): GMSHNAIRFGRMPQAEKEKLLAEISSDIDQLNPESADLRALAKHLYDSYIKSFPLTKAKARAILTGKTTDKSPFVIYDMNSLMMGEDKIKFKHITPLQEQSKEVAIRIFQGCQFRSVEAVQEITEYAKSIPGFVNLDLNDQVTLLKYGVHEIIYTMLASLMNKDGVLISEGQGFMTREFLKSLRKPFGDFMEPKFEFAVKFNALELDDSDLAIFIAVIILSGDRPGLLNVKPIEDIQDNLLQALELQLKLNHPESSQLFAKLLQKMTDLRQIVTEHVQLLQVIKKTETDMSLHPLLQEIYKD
Test: PPAR γ activation action based on transactivation assay of PPAR γ by transient gene transfer (GAL4-PPAR γ chimeric receptor, luciferase reporter, HEK293EBNA cells)
Type: cell-based
Settings: concentration showing 50% of the compound's own efficacy (maximum activity rate relative to pioglitazone 10 μmol/L = 100%), 24 hr
Procedure: The agonist activity of compound (I) to PPAR γ was determined by a transactivation assay method using a chimeric nuclear receptor of a DNA binding region of a yeast transcription factor GAL4 and a PPAR γ ligand binding region. Specifically, the PPAR γ agonist activity of compound (I) was evaluated by the following method based on the method of Lehmann et al. (J Biol Chem., 1995, vol. 270, page 12953).
HEK293EBNA cells cultured in Dulbecco's Modified Eagle medium (Invitrogen) containing 10 v/v % fetal calf serum (Invitrogen) were used. 30 mL of the above-mentioned cells (density: 1×10^5 cells/mL) were inoculated in a […] (Iwaki Glass), and cultured overnight. Using SuperFect Transfection Reagent (QIAGEN), a plasmid expressing a GAL4-PPAR γ chimeric nuclear receptor fusing 174-475 amino acids, which are human PPAR γ ligand binding region, and 1-147 amino acids, which are GAL4 DNA binding region, and a reporter plasmid expressing a GAL4 responsive luciferase were transiently introduced into the cells at a proportion of 4:1. After 5 hr from transfection, the cells were detached from the culture dish, and the detached cells (density: 2×10^4 cells/mL) were inoculated by 100 μL in each well of a 96 well white plate (SUMITOMO BAKELITE), and cultured overnight. The medium was removed, compound (I) diluted in various concentrations with serum-free Dulbecco's Modified Eagle medium was added by 100 μL, and the mixture was reacted under a 5% carbon dioxide gas stream (5% CO2) at 37° C. for 24 hr. On the other hand, as a positive control, 10 μmol/L of pioglitazone (100 μL) was added, and the mixture was reacted under a 5% carbon dioxide gas stream (5% CO2) at 37° C. for 24 hr. As a substrate of luciferase, 100 μL of Steady-Glo (Promega) was added to each well and the mixture was thoroughly stirred. Immediately thereafter, the chemical luminescence due to luciferase was measured using TopCount NTX (Packard).
The agonist activity (activity rate (%)) of compound (I) to PPAR γ was calculated according to the following formula, as a relative activity when the agonist activity on addition of pioglitazone (10 μmol/L) was 100%.

Row | SMILES | EC50 [nM]
1 | CCCc1nc2ccccc2n1Cc1ccc2c(c1)CCc1ccccc1/C2=C\c1noc(=O)[nH]1 [Compound 5, (E)-2-(2-Propylbenzimidazol-1-yl)methyl-5-(5-oxo-4,5-dihydro-1,2,4-oxadiazol-3-yl)methylene-10,11-dihydro-5H-dibenzo[a,d]cycloheptene] | 399
2 | CCCc1nc2ccccc2n1Cc1ccc2c(c1)CCc1ccccc1/C2=C\c1n[nH]c(=O)o1 [Compound 7, (E)-2-(2-Propylbenzimidazol-1-yl)methyl-5-(5-oxo-4,5-dihydro-1,3,4-oxadiazol-2-yl)methylene-10,11-dihydro-5H-dibenzo[a,d]cycloheptene] | 791
3 | CCc1nc2c(C)cc(C)nc2n1Cc1ccc2c(c1)CCc1ccccc1/C2=C\c1noc(=S)[nH]1 [Compound 8, (E)-2-(2-Ethyl-5,7-dimethyl-3H-imidazo[4,5-b]pyridin-3-yl)methyl-5-(5-thioxo-4,5-dihydro-1,2,4-oxadiazol-3-yl)methylene-10,11-dihydro-5H-dibenzo[a,d]cycloheptene] | 175
4 | CCCc1nc2c(C)cccc2n1Cc1ccc2c(c1)CCc1ccccc1/C2=C(\C)c1nnn[nH]1 [Compound 17, (Z)-2-(4-Methyl-2-propylbenzimidazol-1-yl)methyl-5-[1-(1H-tetrazol-5-yl)ethylidene]-10,11-dihydro-5H-dibenzo[a,d]cycloheptene] | 30
5 | C/C(=C1\c2ccccc2CCc2cc(Cn3c(C4CC4)nc4c(Cl)cccc43)ccc21)c1noc(=O)[nH]1 [Compound 19, (Z)-2-(4-Chloro-2-cyclopropylbenzimidazol-1-yl)methyl-5-[1-(5-oxo-4,5-dihydro-1,2,4-oxadiazol-3-yl)ethylidene]-10,11-dihydro-5H-dibenzo[a,d]cycloheptene] | 6.4
6 | CCc1nc(-c2ccccc2)cn1Cc1ccc2c(c1)COc1ccccc1/C2=C(\C)c1noc(=O)[nH]1 [Compound 21, (E)-8-(2-Ethyl-4-phenylimidazol-1-yl)methyl-11-[1-(5-oxo-4,5-dihydro-1,2,4-oxadiazol-3-yl)ethylidene]-6,11-dihydrodibenzo[b,e]oxepine] | 40
7 | CCc1nc2ccccc2n1Cc1ccc2c(c1)COc1ccccc1/C2=C(\C)c1noc(=O)[nH]1 [Compound 26, (E)-8-(2-Ethylbenzimidazol-1-yl)methyl-11-[1-(5-oxo-4,5-dihydro-1,2,4-oxadiazol-3-yl)ethylidene]-6,11-dihydrodibenzo[b,e]oxepine] | 17
8 | CCCc1nc2ccccc2n1Cc1ccc2c(c1)COc1ccccc1/C2=C(\C)c1noc(=O)[nH]1 [Compound 27, (E)-8-(2-Propylbenzimidazol-1-yl)methyl-11-[1-(5-oxo-4,5-dihydro-1,2,4-oxadiazol-3-yl)ethylidene]-6,11-dihydrodibenzo[b,e]oxepine] | 2.6
9 | COCc1nc2ccccc2n1Cc1ccc2c(c1)COc1ccccc1/C2=C(\C)c1noc(=O)[nH]1 [Compound 30, (E)-8-(2-Methoxymethylbenzimidazol-1-yl)methyl-11-[1-(5-oxo-4,5-dihydro-1,2,4-oxadiazol-3-yl)ethylidene]-6,11-dihydrodibenzo[b,e]oxepine] | 9.8
10 | C/C(=C1/c2ccc(Cn3c(Cc4ccccc4)nc4ccccc43)cc2COc2ccccc21)c1noc(=O)[nH]1 [Compound 33, (E)-8-(2-Benzylbenzimidazol-1-yl)methyl-11-[1-(5-oxo-4,5-dihydro-1,2,4-oxadiazol-3-yl)ethylidene]-6,11-dihydrodibenzo[b,e]oxepine] | 26
11 | CCCc1nc2c(C)cccc2n1Cc1ccc2c(c1)COc1ccccc1/C2=C(\C)c1noc(=O)[nH]1 [Compound 35, (E)-8-(2-Propyl-4-methylbenzimidazol-1-yl)methyl-11-[1-(5-oxo-4,5-dihydro-1,2,4-oxadiazol-3-yl)ethylidene]-6,11-dihydrodibenzo[b,e]oxepine] | 2.4
12 | CCc1nc2c(C)cc(-c3ccccc3)cc2n1Cc1ccc2c(c1)CCc1ccccc1/C2=C\C#N [Compound 50, (E)-[2-(2-Ethyl-4-methyl-6-phenylbenzimidazol-1-yl)methyl-10,11-dihydro-5H-dibenzo[a,d]cyclohepten-5-ylidene]acetonitrile] | 352
13 | Cc1cc(-c2ccccc2)cc2c1nc(C)n2Cc1ccc2c(c1)CCc1ccccc1/C2=C\c1nnn[nH]1 [Compound 54, (E)-2-(2,4-Methyl-6-phenylbenzimidazol-1-yl)methyl-5-(1H-tetrazol-5-yl)methylene-10,11-dihydro-5H-dibenzo[a,d]cycloheptene] | 54
14 | Cc1cc(-c2ccccc2)cc2c1nc(C)n2Cc1ccc2c(c1)CCc1ccccc1/C2=C\C(=O)O [Compound 55, (E)-[2-(2,4-Dimethyl-6-phenylbenzimidazol-1-yl)methyl-10,11-dihydro-5H-dibenzo[a,d]cyclohepten-5-ylidene]acetic acid] | 39
15 | CCCc1nc2c(C)cc(-c3cccs3)cc2n1Cc1ccc2c(c1)CCc1ccccc1/C2=C\c1nnn[nH]1 [Compound 67, (E)-2-[4-Methyl-2-propyl-6-(2-thienyl)benzimidazol-1-yl]methyl-5-(1H-tetrazol-5-yl)methylene-10,11-dihydro-5H-dibenzo[a,d]cycloheptene] | 156
16 | CCCc1nc2c(C)cc(-c3nnco3)cc2n1Cc1ccc2c(c1)CCc1ccccc1/C2=C\c1nnn[nH]1 [Compound 70, (E)-2-[4-Methyl-6-(1,3,4-oxadiazol-2-yl)-2-propylbenzimidazol-1-yl]methyl-5-(1H-tetrazol-5-yl)methylene-10,11-dihydro-5H-dibenzo[a,d]cycloheptene] | 156
17 | CCc1nc2c(C)cc(C)nc2n1Cc1ccc2c(c1)OCc1ccccc1/C2=C(\C)c1noc(=O)[nH]1 [Compound 76, (Z)-3-(2-Ethyl-5,7-dimethyl-3H-imidazo[4,5-b]pyridin-3-yl)methyl-11-[1-(5-oxo-4,5-dihydro-1,2,4-oxadiazol-3-yl)ethylidene]-6,11-dihydrodibenzo[b,e]oxepine] | 328
18 | CCCc1nc2c(C)cccc2n1C(C)c1ccc2c(c1)CCc1ccccc1/C2=C\c1noc(=O)[nH]1 (centres unmarked) [Compound 85, (E)-2-[1-(2-Propyl-4-methylbenzimidazol-1-yl)ethyl]-5-(5-oxo-4,5-dihydro-1,2,4-oxadiazol-3-yl)methylene-10,11-dihydro-5H-dibenzo[a,d]cycloheptene] | 27
19 | CCc1nc2c(Cl)cccc2n1C(C)c1ccc2c(c1)CCc1ccccc1/C2=C\c1noc(=O)[nH]1 (centres unmarked) [Compound 87, (E)-2-[1-(4-Chloro-2-ethylbenzimidazol-1-yl)ethyl]-5-(5-oxo-4,5-dihydro-1,2,4-oxadiazol-3-yl)methylene-10,11-dihydro-5H-dibenzo[a,d]cycloheptene] | 60
20 | CCCc1nc2c(C)cc(-c3ncco3)cc2n1Cc1ccc2c(c1)CCc1ccccc1/C2=C\C(=O)N(C)CC(=O)O [Compound 95, (E)-2-[N-Methyl 2-({2-[4-methyl-6-(1,3-oxazol-2-yl)-2-propylbenzimidazol-1-yl]methyl-10,11-dihydro-5H-dibenzo[a,d]cyclohepten-5-ylidene}acetamido)]acetic acid] | 31
21 | CCCc1nc2c(C(C)(C)O)cccc2n1Cc1ccc2c(c1)COc1ccccc1/C2=C(\C)c1noc(=O)[nH]1 [Compound 96, (E)-8-[(4-Hydroxypropan-2-yl)-2-propylbenzimidazol-1-yl]methyl-11-[1-(5-oxo-4,5-dihydro-1,2,4-oxadiazol-3-yl)ethylidene]-6,11-dihydrodibenzo[b,e]oxepine] | 13
22 | CCCc1nc2c(C(N)=O)cccc2n1Cc1ccc2c(c1)COc1ccccc1/C2=C(\C)c1noc(=O)[nH]1 [Compound 100, (E)-1-{11-[1-(5-Oxo-4,5-dihydro-1,2,4-oxadiazol-3-yl)ethylidene]-6,11-dihydrodibenzo[b,e]oxepin-8-yl}methyl-2-propylbenzimidazole-4-carboxamide] | 20
23 | CCC/C(=C1/c2ccc(Cn3c(CCC)nc4ccccc43)cc2COc2ccccc21)c1noc(=O)[nH]1 [Compound 115, (E)-11-[1-(5-Oxo-4,5-dihydro-1,2,4-oxadiazol-3-yl)butylidene]-8-(2-propylbenzimidazol-1-yl)methyl-6,11-dihydrodibenzo[b,e]oxepine] | 36
